In US7892755B2, “Screening method” (Takeda Pharmaceutical Company Limited, priority 2004, dated 2011):

Tests used:
GPR35 = GPR35 (Homo sapiens, UniProt Q9HC97, S294R); experiment: Changes in intracellular calcium levels on FLIPR, CHO cell line stably co-expressing human GPR35 and Gα16; type: cell-based; parameters: expressed in transfected cells
Method: The Gα16-stably expressed cell line (Gα16/CHO cell line) as a host cell was prepared by transfecting the Gα16 expression vector (Guthrie cDNA Resource Center) into CHO cells in a conventional manner and incubating at 37° C. under 5% CO2 in αMEM medium (containing nucleic acid; Invitrogen) supplemented with 10% fetal calf serum (Invitrogen), 50 units/ml penicillin/50 ug/ml streptomycin (CAMBREX) and 1 mg/ml geneticin (Invitrogen). The cells that were incubated for 2 days in αMEM medium (containing nucleic acid) supplemented only with 10% fetal calf serum charged in a 75 cm^2 flask were used for the transfection. The transfection was carried out using Lipofectamine reagent (Invitrogen) by a modification of the protocol attached to the reagent. First, 2 centrifuge tubes each having a 15 ml volume were prepared and 600 μl each of Opti-MEM medium (Invitrogen) was dispensed in each tube. Next, 4.8 μg of the expression vector was charged in one tube and in another tube 36 μl of Lipofectamine reagent was charged, which were mixed together. The mixture was settled for 20 minutes at room temperature. […] The cells obtained were counted and diluted with αMEM medium (containing no nucleic acid; Invitrogen) supplemented only with 10% dialyzed fetal calf serum to have 0.3, 1.5 and 7.5 cells per 100 μl of the medium. […]

mouse GPR35 = molecular target: T1, mouse GPR35 (Mus musculus, UniProt Q9ES90, D300Y/S286F); experiment: Reactivity on FLIPR, CHO-K1 cells transfected with mouse GPR35 expression vector; type: cell-based
T1 construct: the digestion product was inserted into plasmid vector pAKKO-111H; expressed in transfected cells; host or cells: CHO-K1 cells
T1 sequence (Q9ES90 whole entry S286F/D300Y): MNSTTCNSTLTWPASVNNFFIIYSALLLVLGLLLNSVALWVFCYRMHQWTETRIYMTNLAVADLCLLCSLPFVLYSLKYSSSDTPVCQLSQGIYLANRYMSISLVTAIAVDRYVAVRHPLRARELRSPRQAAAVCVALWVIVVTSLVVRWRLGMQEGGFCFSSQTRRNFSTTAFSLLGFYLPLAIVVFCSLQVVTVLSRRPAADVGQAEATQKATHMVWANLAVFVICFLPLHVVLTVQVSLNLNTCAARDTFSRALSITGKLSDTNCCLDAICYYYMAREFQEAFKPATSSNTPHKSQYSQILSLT
Method: The CHO-K1 cell line (purchased from ATCC) was incubated in HAM F-12 medium (Invitrogen) supplemented with 10% fetal calf serum, unless otherwise indicated. On the day before transfection, the cells were inoculated at 4.5×10^5/10 cm^2 and incubated at 37° C. for 15 hours or more in a CO2 incubator adjusted to 5% CO2 concentration. Using Lipofectamine reagent (Invitrogen), transfection was performed according to modifications of the procedure attached to the reagent. When a 6-well plate was used as the incubator, the transfection was performed as follows. Two tubes each having a 1.5 ml volume were prepared and 100 μl each of Opti-MEM medium (Invitrogen) was dispensed in each tube. […] The cells obtained were counted and diluted to 5×10^4 cells per 100 μl of the medium. […]
To assay the changes in intracellular calcium levels on FLIPR, the following pretreatment was made. First, an assay buffer was prepared to add fluorescence dye Fluo-3AM (DOJIN) to the cells, or to wash the cells immediately before the FLIPR assay. […] After mixing them, the mixture was added to 10.6 ml of an assay buffer supplemented with 105 μl of fetal calf serum to give a fluorescence dye solution. […]

GPR35, sequence (Q9HC97 whole entry S294R): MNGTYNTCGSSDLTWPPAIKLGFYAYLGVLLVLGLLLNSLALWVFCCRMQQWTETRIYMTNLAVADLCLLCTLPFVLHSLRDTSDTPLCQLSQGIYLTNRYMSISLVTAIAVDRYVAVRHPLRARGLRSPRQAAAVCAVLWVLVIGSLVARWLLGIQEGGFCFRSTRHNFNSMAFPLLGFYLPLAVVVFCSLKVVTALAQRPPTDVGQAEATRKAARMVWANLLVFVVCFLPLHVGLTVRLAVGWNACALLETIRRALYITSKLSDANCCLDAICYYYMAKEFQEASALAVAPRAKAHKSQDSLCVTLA

SMILES: O=C1N=c2cc([N+](=O)[O-])c([N+](=O)[O-])cc2=NC1=O [DNQX, 6,7-dinitroquinoxaline-2,3-dione]
- intracellular calcium levels (GPR35): increased
- reactivity of mouse GPR35 (FLIPR) (mouse GPR35): responsive
